Measurements reported in PMC8931322 (Proceedings of the National Academy of Sciences of the …, 2022).
pEC50: −log10 of the molar value.

What was measured:
Type in all cases: cell-based
BIN2/AtSK21 = molecular target: T1, BIN2/AtSK21 (Arabidopsis thaliana, UniProt Q39011); assay: CETSA melting curve, Western blot; details: intact cells, 250 µM bikinin, 30 min
T1 sequence (Q39011 1-380): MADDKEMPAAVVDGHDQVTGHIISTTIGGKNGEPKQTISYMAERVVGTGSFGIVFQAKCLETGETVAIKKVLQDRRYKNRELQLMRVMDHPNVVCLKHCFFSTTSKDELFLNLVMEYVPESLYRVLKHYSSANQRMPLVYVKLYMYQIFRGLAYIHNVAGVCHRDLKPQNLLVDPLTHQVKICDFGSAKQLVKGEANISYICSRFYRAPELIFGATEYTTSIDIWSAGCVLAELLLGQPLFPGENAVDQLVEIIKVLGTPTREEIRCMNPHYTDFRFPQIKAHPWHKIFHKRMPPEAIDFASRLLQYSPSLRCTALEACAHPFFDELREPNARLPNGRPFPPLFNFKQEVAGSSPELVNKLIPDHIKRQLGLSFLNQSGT

AtSK12 = molecular target: T2, AtSK12 (Arabidopsis thaliana, UniProt P43289); assay: isothermal dose-response CETSA
T2 sequence (P43289 2-409): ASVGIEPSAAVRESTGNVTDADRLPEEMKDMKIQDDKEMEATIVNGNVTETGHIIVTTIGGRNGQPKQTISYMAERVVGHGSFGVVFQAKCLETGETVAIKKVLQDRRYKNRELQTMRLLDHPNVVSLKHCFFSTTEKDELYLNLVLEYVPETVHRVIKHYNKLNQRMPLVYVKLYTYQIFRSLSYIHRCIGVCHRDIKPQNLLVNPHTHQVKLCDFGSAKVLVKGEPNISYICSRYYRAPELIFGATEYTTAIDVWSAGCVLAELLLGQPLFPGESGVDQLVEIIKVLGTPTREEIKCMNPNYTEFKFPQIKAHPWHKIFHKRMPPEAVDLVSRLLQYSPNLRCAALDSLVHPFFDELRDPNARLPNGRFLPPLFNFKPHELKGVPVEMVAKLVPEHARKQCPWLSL

AtSK41 = molecular target: T3, AtSK41 (Arabidopsis thaliana, UniProt Q39019); assay: CETSA melting curve, Western blot; details: intact cells, 250 µM bikinin, 30 min
T3 sequence (Q39019 1-421): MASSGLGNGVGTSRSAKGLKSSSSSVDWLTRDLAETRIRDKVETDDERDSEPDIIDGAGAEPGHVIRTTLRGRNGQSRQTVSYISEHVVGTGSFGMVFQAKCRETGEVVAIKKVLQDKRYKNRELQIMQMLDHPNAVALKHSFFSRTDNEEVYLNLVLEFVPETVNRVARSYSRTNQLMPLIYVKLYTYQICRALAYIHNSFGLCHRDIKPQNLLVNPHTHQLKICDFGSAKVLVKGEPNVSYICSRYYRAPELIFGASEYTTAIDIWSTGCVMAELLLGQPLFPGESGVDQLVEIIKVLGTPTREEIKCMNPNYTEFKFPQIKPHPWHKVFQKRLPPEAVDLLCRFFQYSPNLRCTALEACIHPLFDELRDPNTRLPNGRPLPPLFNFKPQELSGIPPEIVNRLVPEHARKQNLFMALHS

AtSK11 = molecular target: T4, AtSK11 (Arabidopsis thaliana, UniProt P43288); assay: CETSA melting curve, Western blot; details: intact cells, 250 µM bikinin, 30 min
T4 sequence (P43288 2-405): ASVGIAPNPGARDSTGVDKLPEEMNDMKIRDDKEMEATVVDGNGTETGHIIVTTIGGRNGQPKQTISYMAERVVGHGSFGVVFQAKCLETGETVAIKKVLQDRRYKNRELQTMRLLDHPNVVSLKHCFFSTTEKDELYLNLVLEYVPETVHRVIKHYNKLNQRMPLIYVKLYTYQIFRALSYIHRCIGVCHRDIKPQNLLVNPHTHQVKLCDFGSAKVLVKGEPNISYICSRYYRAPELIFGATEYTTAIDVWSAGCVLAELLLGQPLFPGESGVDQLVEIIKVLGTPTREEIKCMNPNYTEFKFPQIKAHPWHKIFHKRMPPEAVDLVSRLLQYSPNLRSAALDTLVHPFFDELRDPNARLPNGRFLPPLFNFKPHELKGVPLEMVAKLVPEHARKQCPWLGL

AtSK22 = molecular target: T5, AtSK22 (Arabidopsis thaliana, UniProt Q39012); assay: CETSA melting curve, Western blot; details: intact cells, 250 µM bikinin, 30 min
T5 sequence (Q39012 2-407): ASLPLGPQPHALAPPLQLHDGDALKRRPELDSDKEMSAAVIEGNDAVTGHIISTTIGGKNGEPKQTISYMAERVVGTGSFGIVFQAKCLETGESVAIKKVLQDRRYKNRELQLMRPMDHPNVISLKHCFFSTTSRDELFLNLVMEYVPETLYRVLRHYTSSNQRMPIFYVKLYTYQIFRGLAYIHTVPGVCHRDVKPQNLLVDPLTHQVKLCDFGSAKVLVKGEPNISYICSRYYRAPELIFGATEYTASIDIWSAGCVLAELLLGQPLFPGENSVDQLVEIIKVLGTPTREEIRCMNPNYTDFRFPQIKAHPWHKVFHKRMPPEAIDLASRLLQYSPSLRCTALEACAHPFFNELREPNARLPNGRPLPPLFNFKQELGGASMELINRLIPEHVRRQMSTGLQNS

pEC50 (AtSK12): ~4.15
SMILES: O=C(O)CCC(=O)Nc1ccc(Br)cn1 [bikinin]
Tm shift (BIN2/AtSK21): BIN2/AtSK21, AtSK22, and AtSK41 showed Tm shifts
Tm shift (AtSK41): BIN2/AtSK21, AtSK22, and AtSK41 showed Tm shifts
Tm shift (AtSK11): AtSK11, AtSK12, AtSK13, BIN2/AtSK21, AtSK22, and AtSK41 showed Tm shifts
Tm shift (AtSK22): BIN2/AtSK21, AtSK22, and AtSK41 showed Tm shifts
